Measured values as given in patent publication US20260232597A1, “PHARMACEUTICAL COMPOSITION OF TRAMETINIB AND PROCESS OF PREPARATION THEREOF” (ALEMBIC PHARMACEUTICALS LIMITED, priority 2023, published 2026).
≈ marks a conversion by molar mass, not a printed value.

Experiments:
[1] = Dissolution studies for Example 2 (TA0 to TA14); assay type: physicochemical; conditions: 4.5 Acetate Buffer + 0.75% SLS, Type II, 500 mL, 60 RPM
[2] = Saturation solubility of drug substance in different dissolution media (incubator shaker, 24 hrs, HPLC); assay type: physicochemical; conditions: 37° C.; for solubility at 24 h: thermodynamic from solid
Procedure: Solubility study of drug substance was carried out in different dissolution media. The saturated solutions of drug substance were prepared in the recommended dissolution media. Initial pH of the saturated solutions was noted. Then the solutions were allowed to shake for 24 hours in the incubator shaker at 150 RPM. The temperature was kept around 37° C.±0.5° C. After 24 hours of shaking, pH of saturated solutions was noted. Further dilutions of these solutions were made as per the standard concentration. Analysis was carried out using HPLC technique. The sample was prepared in triplicates for saturation solubility determination.

[3] = cited from earlier work
[4] = as disclosed in US'304 patent; cited from earlier work
[5] = pH 4.5 Acetate Buffer + 0.75% SDS
[6] = pH 6.8 Phosphate Buffer + 0.75% SDS
[7] = pH 7.0 Phosphate Buffer + 0.75% SDS

Q: Which “% DR” value ([1]; 5 mins) does the source give for `CC(=O)Nc1cccc(-n2c(=O)n(C3CC3)c(=O)c3c(Nc4ccc(I)cc4F)n(C)c(=O)c(C)c32)c1.CC(=O)O` [TA2, Trametinib acetic acid solvate] here?
A: 2%

Q: And the “% DR” value ([1]; 10 mins)?
A: 3%

Q: What about the “% DR” value ([1]; 15 mins) of the same compound?
A: 5%

Q: And the “% DR” value ([1]; 20 mins)?
A: 7%

Q: And the “% DR” value ([1]; 30 mins)?
A: 9%

Q: What about the “% DR” value ([1]; 45 mins) of the same compound?
A: 13%

Q: And the “% DR” value ([1]; 60 mins)?
A: 16%

Q: What about the “% DR” value ([1]; 90 mins) of the same compound?
A: 23%

Q: And the “% DR” value ([1]; 120 mins)?
A: 29%

Q: For `CC(=O)Nc1cccc(-n2c(=O)n(C3CC3)c(=O)c3c(Nc4ccc(I)cc4F)n(C)c(=O)c(C)c32)c1.C[S+](C)[O-]` [Trametinib DMSO, Trametinib dimethyl sulfoxide], which Average solubility ([2]; 0.1N HCl + 0.75% SDS) is on record?
A: 50 µg/mL

Q: And the “Solubility mg/250 mL” value ([2]; 0.1N HCl + 0.75% SDS)?
A: 11.7 mg/250 mL

Q: And the “Solubility mg/500 mL” value ([2]; 0.1N HCl + 0.75% SDS)?
A: 23 mg/500 mL

Q: What about the “Solubility mg/900 mL” value ([2]; 0.1N HCl + 0.75% SDS) of the same compound?
A: 42 mg/900 mL

Q: What about the “Solubility mg/250 mL” value ([2]; 0.1N HCl) of the same compound?
A: 0.8 mg/250 mL

Q: What about the “Solubility mg/500 mL” value ([2]; 0.1N HCl) of the same compound?
A: 2 mg/500 mL

Q: What about the “Solubility mg/900 mL” value ([2]; 0.1N HCl) of the same compound?
A: 3 mg/900 mL

Q: And the Average solubility [2, 5]?
A: 240 µg/mL

Q: What about the “Solubility mg/250 mL” value [2, 5] of the same compound?
A: 60.0 mg/250 mL

Q: What about the “Solubility mg/500 mL” value [2, 5] of the same compound?
A: 120 mg/500 mL

Q: What about the “Solubility mg/900 mL” value [2, 5] of the same compound?
A: 216 mg/900 mL

Q: And the “Solubility mg/250 mL” value ([2]; pH 4.5 Acetate Buffer)?
A: 0.0 mg/250 mL

Q: And the “Solubility mg/500 mL” value ([2]; pH 4.5 Acetate Buffer)?
A: 0 mg/500 mL

Q: What about the “Solubility mg/900 mL” value ([2]; pH 4.5 Acetate Buffer) of the same compound?
A: 0 mg/900 mL

Q: What about the Average solubility [2, 6] of the same compound?
A: 70 µg/mL

Q: What about the “Solubility mg/250 mL” value [2, 6] of the same compound?
A: 18.3 mg/250 mL

Q: And the “Solubility mg/500 mL” value [2, 6]?
A: 37 mg/500 mL

Q: What about the “Solubility mg/900 mL” value [2, 6] of the same compound?
A: 66 mg/900 mL

Q: What about the “Solubility mg/250 mL” value ([2]; pH 6.8 Phosphate Buffer) of the same compound?
A: 0.0 mg/250 mL

Q: And the “Solubility mg/500 mL” value ([2]; pH 6.8 Phosphate Buffer)?
A: 0 mg/500 mL

Q: What about the “Solubility mg/900 mL” value ([2]; pH 6.8 Phosphate Buffer) of the same compound?
A: 0 mg/900 mL

Q: And the Average solubility [2, 7]?
A: 70 µg/mL

Q: What about the “Solubility mg/250 mL” value [2, 7] of the same compound?
A: 18.3 mg/250 mL

Q: And the “Solubility mg/500 mL” value [2, 7]?
A: 37 mg/500 mL

Q: What about the “Solubility mg/900 mL” value [2, 7] of the same compound?
A: 66 mg/900 mL

Q: What about the “Solubility mg/250 mL” value ([2]; pH 7.0 Phosphate Buffer) of the same compound?
A: 0.0 mg/250 mL

Q: And the “Solubility mg/500 mL” value ([2]; pH 7.0 Phosphate Buffer)?
A: 0 mg/500 mL

Q: What about the “Solubility mg/900 mL” value ([2]; pH 7.0 Phosphate Buffer) of the same compound?
A: 0 mg/900 mL

Q: And the “% DR” value ([1]; 5 mins)?
A: 27%

Q: And the “% DR” value ([1]; 10 mins)?
A: 34%

Q: What about the “% DR” value ([1]; 15 mins) of the same compound?
A: 38%

Q: And the “% DR” value ([1]; 20 mins)?
A: 39%

Q: What about the “% DR” value ([1]; 30 mins) of the same compound?
A: 41%

Q: And the “% DR” value ([1]; 45 mins)?
A: 42%

Q: And the “% DR” value ([1]; 60 mins)?
A: 43%

Q: And the “% DR” value ([1]; 90 mins)?
A: 44%

Q: What about the “% DR” value ([1]; 120 mins) of the same compound?
A: 44%

Q: And the “Solubility in aqueous media” value ([3]; pH range of 2 to 8)?
A: practically insoluble

Q: Which “Solubility mg/250 mL” value ([2]; 0.1N HCl + 0.75% SDS) does the source give for `CC(=O)Nc1cccc(-n2c(=O)n(C3CC3)c(=O)c3c(Nc4ccc(I)cc4F)n(C)c(=O)c(C)c32)c1` [Trametinib, N-(3-{3-Cyclopropyl-5-[(2-fluoro-4-iodophenyl)amino]-6,8-dimethyl-2,4,7-trioxo-3,4,6,7-tetrahydropyrido[4,3-d]pyrimidin-1 (2H)-yl}phenyl) acetamide] here?
A: 17 mg/250 mL

Q: What about the “Solubility mg/500 mL” value ([2]; 0.1N HCl + 0.75% SDS) of the same compound?
A: 33 mg/500 mL

Q: What about the “Solubility mg/900 mL” value ([2]; 0.1N HCl + 0.75% SDS) of the same compound?
A: 60 mg/900 mL

Q: What about the “Solubility mg/250 mL” value ([2]; 0.1N HCl) of the same compound?
A: 4.2 mg/250 mL

Q: And the “Solubility mg/500 mL” value ([2]; 0.1N HCl)?
A: 8 mg/500 mL

Q: And the “Solubility mg/900 mL” value ([2]; 0.1N HCl)?
A: 15 mg/900 mL

Q: And the solubility at 24 h ([2]; aqueous buffer, pH 4.5 Acetate Buffer)?
A: 10 µg/mL (≈ 16.2 µM)

Q: What about the solubility at 24 h ([2]; aqueous buffer, pH 6.8 Phosphate Buffer) of the same compound?
A: 20 µg/mL (≈ 32.5 µM)

Q: What about the solubility at 24 h ([2]; aqueous with cosolvent or surfactant or cyclodextrin, 0.1N HCl + 0.75% SDS) of the same compound?
A: 70 µg/mL

Q: What about the solubility at 24 h ([2]; aqueous with cosolvent or surfactant or cyclodextrin, pH 4.5 Acetate Buffer + 0.75% SDS) of the same compound?
A: 100 µg/mL

Q: What about the solubility at 24 h ([2]; aqueous with cosolvent or surfactant or cyclodextrin, pH 6.8 Phosphate Buffer + 0.75% SDS) of the same compound?
A: 10 µg/mL

Q: And the solubility at 24 h ([2]; aqueous with cosolvent or surfactant or cyclodextrin, pH 7.0 Phosphate Buffer + 0.75% SDS)?
A: 10 µg/mL

Q: And the “Solubility mg/250 mL” value [2, 5]?
A: 24 mg/250 mL

Q: What about the “Solubility mg/500 mL” value [2, 5] of the same compound?
A: 48 mg/500 mL

Q: What about the “Solubility mg/900 mL” value [2, 5] of the same compound?
A: 87 mg/900 mL

Q: And the “Solubility mg/250 mL” value ([2]; pH 4.5 Acetate Buffer)?
A: 2.5 mg/250 mL

Q: What about the “Solubility mg/500 mL” value ([2]; pH 4.5 Acetate Buffer) of the same compound?
A: 5 mg/500 mL

Q: What about the “Solubility mg/900 mL” value ([2]; pH 4.5 Acetate Buffer) of the same compound?
A: 9 mg/900 mL

Q: What about the “Solubility mg/250 mL” value [2, 6] of the same compound?
A: 3 mg/250 mL

Q: And the “Solubility mg/500 mL” value [2, 6]?
A: 5 mg/500 mL

Q: What about the “Solubility mg/900 mL” value [2, 6] of the same compound?
A: 9 mg/900 mL

Q: What about the “Solubility mg/250 mL” value ([2]; pH 6.8 Phosphate Buffer) of the same compound?
A: 4.2 mg/250 mL

Q: And the “Solubility mg/500 mL” value ([2]; pH 6.8 Phosphate Buffer)?
A: 8 mg/500 mL

Q: And the “Solubility mg/900 mL” value ([2]; pH 6.8 Phosphate Buffer)?
A: 15 mg/900 mL

Q: What about the “Solubility mg/250 mL” value [2, 7] of the same compound?
A: 3 mg/250 mL

Q: And the “Solubility mg/500 mL” value [2, 7]?
A: 5 mg/500 mL

Q: And the “Solubility mg/900 mL” value [2, 7]?
A: 9 mg/900 mL

Q: What about the “Solubility mg/250 mL” value ([2]; pH 7.0 Phosphate Buffer) of the same compound?
A: 0.0 mg/250 mL

Q: What about the “Solubility mg/500 mL” value ([2]; pH 7.0 Phosphate Buffer) of the same compound?
A: 0 mg/500 mL

Q: What about the “Solubility mg/900 mL” value ([2]; pH 7.0 Phosphate Buffer) of the same compound?
A: 0 mg/900 mL

Q: What about the solubility at 24 h ([2]; simulated gastric fluid, 0.1N HCl) of the same compound?
A: 20 µg/mL (≈ 32.5 µM)

Q: And the “% DR” value ([1]; 5 mins)?
A: 9%

Q: And the “% DR” value ([1]; 10 mins)?
A: 11%

Q: What about the “% DR” value ([1]; 15 mins) of the same compound?
A: 12%

Q: What about the “% DR” value ([1]; 20 mins) of the same compound?
A: 13%

Q: And the “% DR” value ([1]; 30 mins)?
A: 14%

Q: And the “% DR” value ([1]; 45 mins)?
A: 16%

Q: What about the “% DR” value ([1]; 60 mins) of the same compound?
A: 17%

Q: And the “% DR” value ([1]; 90 mins)?
A: 19%

Q: And the “% DR” value ([1]; 120 mins)?
A: 21%

Q: And the “Solubility relative to dimethyl sulfoxide solvate” value ([3]; as disclosed in US'304 patent)?
A: much less soluble than dimethyl sulfoxide solvate of Trametinib

Q: And the “Exposure and absorption upon in vivo administration” value [4]?
A: poor exposure and absorption
